By IC50 is commonly meant the concentration at which inhibition is half-maximal. A low value points to higher potency.

Test [1] deals with T1, human MetAP2 enzyme (Homo sapiens, UniProt P50579). As to the kind of experiment: MetAP2 enzyme assay, MetAP2 enzyme complexed with cobalt ions. The following applies: MetAP2 Co pIC50, 10 μM CoCl2; -log(IC50), IC50 molar.
Method: (§1) DNA encoding the full-length sequence of human MetAP2 enzyme is amplified by PCR and cloned into a pFastBac expression vector (Invitrogen). Recombinant baculovirus incorporating the MetAP2 construct is generated by transposition using the Bac-to-Bac system (Invitrogen). The expression of recombinant protein is carried out by infection of Spodoptera frugiperda Sf9 cells (Invitrogen) in 5L Wave Bioreactors (Wave Biotech). Recombinant protein is isolated from cellular extracts by binding to an SP Hitrap Fast Flow or SP Sepharose (Sigma) column, and the protein is eluted using a NaCl gradient. Partially purified extracts of MetAP2 are further purified by an AKTA FPLC over a Superdex-200 column (GE). The purity of MetAP2 protein is determined on denaturing SDS-PAGE gel.
(§2) The results for each well are expressed as percent inhibition and calculated using the equation:
Test [2] has as its target T1, human MetAP2 enzyme. As to the kind of experiment: MetAP2 enzyme assay, MetAP2 enzyme complexed with manganese ions. The following applies: MetAP2 Mn pIC50, 10 μM MnCl2; -log(IC50), IC50 molar.
Method: as §1, §2

The structures appear in SMILES notation.

T1 sequence (P50579 whole entry): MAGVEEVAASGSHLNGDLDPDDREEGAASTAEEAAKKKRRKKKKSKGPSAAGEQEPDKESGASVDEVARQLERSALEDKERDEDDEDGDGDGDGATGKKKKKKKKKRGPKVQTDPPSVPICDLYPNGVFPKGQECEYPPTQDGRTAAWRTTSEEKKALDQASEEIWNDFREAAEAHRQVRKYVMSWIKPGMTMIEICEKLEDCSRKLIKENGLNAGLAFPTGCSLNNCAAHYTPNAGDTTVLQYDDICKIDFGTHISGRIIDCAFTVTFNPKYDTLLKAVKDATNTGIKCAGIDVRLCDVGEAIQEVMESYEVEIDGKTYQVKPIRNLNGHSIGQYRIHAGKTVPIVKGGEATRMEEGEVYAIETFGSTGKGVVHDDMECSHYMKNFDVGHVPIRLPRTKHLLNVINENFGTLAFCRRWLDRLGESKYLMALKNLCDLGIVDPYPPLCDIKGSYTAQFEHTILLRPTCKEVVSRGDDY

Turning to `Cc1nc(C(=O)N2CC(N)C2)ccc1-n1c2ccc(F)cc2c2[nH]ncc21` [Example 117, (3-Aminoazetidin-1-yl)(5-(7-fluoropyrazolo[4,3-b]indol-4(1H)-yl)-6-methylpyridin-2-yl)methanone], the IC50 in test [1] is 20 nM; in test [2], 7.94 nM.
The corresponding values for `Cc1nn(C)c(C)c1-n1c2ccc(F)cc2c2[nH]ncc21` [Example 62, 7-Fluoro-4-(1,3,5-trimethyl-1H-pyrazol-4-yl)-1,4-dihydropyrazolo[4,3-b]indole] are 25.1 nM and 31.6 nM.
Regarding `Cc1nc(N2C[C@H]3C[C@H]3[C@H]2C(N)=O)ncc1-n1c2ccc(F)cc2c2[nH]ncc21` [Example 136, (1R,2S,5S)-3-(5-(7-Fluoropyrazolo[4,3-b]indol-4(1H)-yl)-4-methylpyrimidin-2-yl)-3-azabicyclo[3.1.0]hexane-2-carboxamide], the IC50 in test [1] and in test [2] was 5.01 nM in each case.
As for `Cc1nc(N[C@@H](C)CO)ncc1-n1c2ccc(F)cc2c2[nH]ncc21` [Example 91, (2S)-2-((5-(7-Fluoropyrazolo[4,3-b]indol-4(1H)-yl)-4-methylpyrimidin-2-yl)amino)propan-1-ol], the IC50 in test [1] is 6.31 nM; in test [2] it was 12.6 nM.
Consider `Cc1nc(N)ncc1-n1c2ccc(F)cc2c2[nH]ncc21` [Example 85, 5-(7-Fluoropyrazolo[4,3-b]indol-4(1H)-yl)-4-methylpyrimidin-2-amine], for which the figures for the IC50 in test [1] and in test [2] were 15.8 nM and 12.6 nM, respectively.
For `Cc1nc(N2CC(F)(F)C2)ncc1-n1c2ccc(F)cc2c2[nH]ncc21` [Example 43, 4-(2-(3,3-Difluoroazetidin-1-yl)-4-methylpyrimidin-5-yl)-7-fluoro-1,4-dihydropyrazolo[4,3-b]indole], in that order: 12.6 nM and 12.6 nM.
For `Cc1nc(N2CC[C@@H](C(N)=O)C2)ncc1-n1c2ccc(F)cc2c2[nH]ncc21` [Example 20, (3R)-1-(5-(7-Fluoropyrazolo[4,3-b]indol-4(1H)-yl)-4-methylpyrimidin-2-yl)pyrrolidine-3-carboxamide], in that order: 12.6 nM and 6.31 nM.
The corresponding values for `Cc1nc(N2CCC[C@H]2C(N)=O)ncc1-n1c2ccc(F)cc2c2[nH]ncc21` [Example 72, (2S)-1-(5-(7-Fluoropyrazolo[4,3-b]indol-4(1H)-yl)-4-methylpyrimidin-2-yl)pyrrolidine-2-carboxamide] are 7.94 nM and 3.16 nM.
Take `Cc1nc(N2CC[C@H](C(=O)N3CC(O)C3)C2)ncc1-n1c2ccc(F)cc2c2[nH]ncc21` [Example 111, ((3S)-1-(5-(7-Fluoropyrazolo[4,3-b]indol-4(1H)-yl)-4-methylpyrimidin-2-yl)pyrrolidin-3-yl)(3-hydroxyazetidin-1-yl)methanone]: the IC50 in test [1] is 7.94 nM; in test [2] it was 12.6 nM.
The corresponding values for `COc1ccc(-n2c3ccc(F)cc3c3[nH]ncc32)c(C)n1` [Example 69, 7-Fluoro-4-(6-methoxy-2-methylpyridin-3-yl)-1,4-dihydropyrazolo[4,3-b]indole] are 20 nM and 5.01 nM.
For `Cc1nc(N2CCC[C@H](O)C2)ncc1-n1c2ccc(F)cc2c2[nH]ncc21` [Example 37, (3S)-1-(5-(7-Fluoropyrazolo[4,3-b]indol-4(1H)-yl)-4-methylpyrimidin-2-yl)piperidin-3-ol], in that order: 6.31 nM and 6.31 nM.
For `Cc1ncncc1-n1c2ccc(F)cc2c2[nH]ncc21` [Example 49, 7-Fluoro-4-(4-methylpyrimidin-5-yl)-1,4-dihydropyrazolo[4,3-b]indole], in that order: 63.1 nM and 31.6 nM.
`Cc1nc2c(cc1-n1c3ccc(F)cc3c3[nH]ncc31)ncn2CCO` [Example 82, 2-(6-(7-Fluoropyrazolo[4,3-b]indol-4(1H)-yl)-5-methyl-3H-imidazo[4,5-b]pyridin-3-yl)ethanol]: the IC50 in test [1] is 7.94 nM; in test [2] it was 10 nM.
The corresponding values for `Cc1nc(N2CCC[C@@H]2C(N)=O)ncc1-n1c2ccc(F)cc2c2[nH]ncc21` [Example 73, (2R)-1-(5-(7-Fluoropyrazolo[4,3-b]indol-4(1H)-yl)-4-methylpyrimidin-2-yl)pyrrolidine-2-carboxamide] are 6.31 nM and 3.16 nM.
For `Cc1cc(C(=O)N(C)C)ncc1-n1c2ccc(F)cc2c2[nH]ncc21` [Example 108, 5-(7-Fluoropyrazolo[4,3-b]indol-4(1H)-yl)-N,N,4-trimethylpicolinamide], the results for the IC50 in test [1] and in test [2] were 20 nM and 25.1 nM, respectively.
The corresponding values for `Cc1nc2[nH]cnc2cc1-n1c2cc(Cl)c(F)cc2c2[nH]ncc21` [Example 129, 6-Chloro-7-fluoro-4-(5-methyl-3H-imidazo[4,5-b]pyridin-6-yl)-1,4-dihydropyrazolo[4,3-b]indole] are 25.1 nM and 50.1 nM.
For `Cc1nc(N2CC[C@@H](F)C2)ncc1-n1c2ccc(F)cc2c2[nH]ncc21` [Example 36, 7-Fluoro-4-(2-((R)-3-fluoropyrrolidin-1-yl)-4-methylpyrimidin-5-yl)-1,4-dihydropyrazolo[4,3-b]indole], in that order: 39.8 nM and 63.1 nM.
The corresponding values for `Cc1nc(N2CC[C@@H](N(C)C)C2)ncc1-n1c2ccc(F)cc2c2[nH]ncc21` [Example 35, (3R)-1-(5-(7-Fluoropyrazolo[4,3-b]indol-4(1H)-yl)-4-methylpyrimidin-2-yl)-N,N-dimethylpyrrolidin-3-amine] are 39.8 nM and 79.4 nM.
Turning to `Cc1nc(N2CC[C@H](O)C2)ccc1-n1c2ccc(F)cc2c2[nH]ncc21` [Example 27, (3S)-1-(5-(7-Fluoropyrazolo[4,3-b]indol-4(1H)-yl)-6-methylpyridin-2-yl)pyrrolidin-3-ol], the IC50 in test [1] was 6.31 nM; in test [2], 3.98 nM.
The corresponding values for `Cc1nc(N2CCN(C)CC2)ccc1-n1c2ccc(F)cc2c2[nH]ncc21` [Example 7, 7-Fluoro-4-(2-methyl-6-(4-methylpiperazin-1-yl)pyridin-3-yl)-1,4-dihydropyrazolo[4,3-b]indole] are 15.8 nM and 12.6 nM.
The corresponding values for `Cc1nc(N2CC(CO)C2)ncc1-n1c2ccc(F)cc2c2[nH]ncc21` [Example 47, (1-(5-(7-Fluoropyrazolo[4,3-b]indol-4(1H)-yl)-4-methylpyrimidin-2-yl)azetidin-3-yl)methanol] are 7.94 nM and 12.6 nM.
The corresponding values for `Cc1c(-n2c3ccc(F)cc3c3[nH]ncc32)ccc2c1cnn2C` [Example 17, 4-(1,4-Dimethyl-1H-indazol-5-yl)-7-fluoro-1,4-dihydropyrazolo[4,3-b]indole] are 7.94 nM and 6.31 nM.
For `O=C(NCCO)c1ccc(Cn2c3ccc(F)cc3c3[nH]ncc32)cc1` [Example 54, 4-((7-Fluoropyrazolo[4,3-b]indol-4(1H)-yl)methyl)-N-(2-hydroxyethyl)benzamide], the IC50 was 31.6 nM in test [1] and 39.8 nM in test [2].
The corresponding values for `O=C(C1CC1)n1c2ccc(F)cc2c2[nH]ncc21` [Example 99, Cyclopropyl(7-fluoropyrazolo[4,3-b]indol-4(1H)-yl)methanone] are 794 nM and 316 nM.
For `Cc1nc(N2CC[C@H](O)C2)ncc1-n1c2ccc(F)cc2c2[nH]ncc21` [Example 55, (S)-1-(5-(7-Fluoropyrazolo[4,3-b]indol-4(1H)-yl)-4-methylpyrimidin-2-yl)pyrrolidin-3-ol], the IC50 in test [1] was 25.1 nM; in test [2], 15.8 nM.
For `Cc1nc(N2CCO[C@H](CO)C2)ncc1-n1c2ccc(F)cc2c2[nH]ncc21` [Example 83, ((2S)-4-(5-(7-Fluoropyrazolo[4,3-b]indol-4(1H)-yl)-4-methylpyrimidin-2-yl)morpholin-2-yl)methanol], in that order: 6.31 nM and 7.94 nM.
The corresponding values for `COCCn1cnc2cc(-n3c4ccc(F)cc4c4[nH]ncc43)c(C)nc21` [Example 31, 7-Fluoro-4-(3-(2-methoxyethyl)-5-methyl-3H-imidazo[4,5-b]pyridin-6-yl)-1,4-dihydropyrazolo[4,3-b]indole] are 7.94 nM and 10 nM.
For `Cc1cc(C(=O)N2CC(O)C2)ncc1-n1c2ccc(F)cc2c2[nH]ncc21` [Example 94, (5-(7-Fluoropyrazolo[4,3-b]indol-4(1H)-yl)-4-methylpyridin-2-yl)(3-hydroxyazetidin-1-yl)methanone], in that order: 10 nM and 7.94 nM.
As for `Cc1nc(N2CCOCC2)ccc1-n1c2ccc(F)cc2c2[nH]ncc21` [Example 66, 4-(5-(7-Fluoropyrazolo[4,3-b]indol-4(1H)-yl)-6-methylpyridin-2-yl)morpholine], the IC50 in test [1] was 10 nM; in test [2] it was 3.16 nM.
The corresponding values for `Cc1nc(N2CC(C(N)=O)C2)ncc1-n1c2ccc(F)cc2c2[nH]ncc21` [Example 89, 1-(5-(7-Fluoropyrazolo[4,3-b]indol-4(1H)-yl)-4-methylpyrimidin-2-yl)azetidine-3-carboxamide] are 20 nM and 10 nM.
Take `Cc1nc(NC[C@@H](C)O)ncc1-n1c2ccc(F)cc2c2[nH]ncc21` [Example 93, (2R)-1-((5-(7-Fluoropyrazolo[4,3-b]indol-4(1H)-yl)-4-methylpyrimidin-2-yl)amino)propan-2-ol]: the IC50 is 7.94 nM in test [1] and 6.31 nM in test [2].
In the case of `Cc1nc(C(=O)NC2CC2)ccc1-n1c2ccc(F)cc2c2[nH]ncc21` [Example 101, N-Cyclopropyl-5-(7-fluoropyrazolo[4,3-b]indol-4(1H)-yl)-6-methylpicolinamide], the IC50 in test [1] and in test [2] was 10 nM throughout.
